The assay has as its target T1, TLR9 (Homo sapiens, UniProt Q9NR96).
T1 construct: lymphocytes, monocytes and dendritic cells that express TLR7, TLR8 and TLR9; endogenous in cells; host or cells: human PBMCs from healthy donors
T1 sequence (Q9NR96 26-1032): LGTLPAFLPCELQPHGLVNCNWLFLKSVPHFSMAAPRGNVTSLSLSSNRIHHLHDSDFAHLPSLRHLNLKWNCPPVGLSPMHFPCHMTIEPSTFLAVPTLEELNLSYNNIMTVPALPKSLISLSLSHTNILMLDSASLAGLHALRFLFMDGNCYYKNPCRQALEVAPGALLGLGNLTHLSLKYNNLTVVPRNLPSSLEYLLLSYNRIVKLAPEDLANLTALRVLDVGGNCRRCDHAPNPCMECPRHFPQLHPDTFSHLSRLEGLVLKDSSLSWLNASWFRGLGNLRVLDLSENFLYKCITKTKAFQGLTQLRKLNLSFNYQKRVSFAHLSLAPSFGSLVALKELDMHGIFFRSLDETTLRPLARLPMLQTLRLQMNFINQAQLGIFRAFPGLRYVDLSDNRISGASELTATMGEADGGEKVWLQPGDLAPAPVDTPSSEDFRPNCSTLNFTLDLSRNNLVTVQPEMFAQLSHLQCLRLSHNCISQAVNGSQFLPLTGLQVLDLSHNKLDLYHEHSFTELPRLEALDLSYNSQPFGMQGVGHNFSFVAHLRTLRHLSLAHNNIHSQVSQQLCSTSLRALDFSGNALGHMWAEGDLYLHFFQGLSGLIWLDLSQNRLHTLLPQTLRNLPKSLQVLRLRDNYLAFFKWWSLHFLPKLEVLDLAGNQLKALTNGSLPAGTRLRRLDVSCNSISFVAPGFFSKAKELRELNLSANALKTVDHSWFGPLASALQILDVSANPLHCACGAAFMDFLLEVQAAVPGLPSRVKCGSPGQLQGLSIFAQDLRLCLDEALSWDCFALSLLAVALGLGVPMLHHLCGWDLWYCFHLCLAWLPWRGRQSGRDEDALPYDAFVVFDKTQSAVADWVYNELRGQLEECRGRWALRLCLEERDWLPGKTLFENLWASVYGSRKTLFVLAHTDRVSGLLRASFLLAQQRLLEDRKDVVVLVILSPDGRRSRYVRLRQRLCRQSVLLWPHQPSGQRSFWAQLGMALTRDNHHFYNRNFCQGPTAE
Kind of assay: Human PBMC cell-based assay, TLR9 agonist ODN-2216 stimulation, cytokine (IL-6 and IFNα) readout. The note with it: human PBMCs, ODN-2216 3 μM, 6 hours; Table 26; read-out: TLR-9 EC50. The method in brief:
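Readout is IL-6 and IFNα in supernatants, quantified by electrochemiluminescence, with EC50 from a sigmoidal fit of cytokine versus concentration. Healthy-donor human PBMCs, 100,000 per well, got antagonist for 1 h at 37 °C, then 6 h agonist exposure: TLR7 via GS-986 at 400 nM final, TLR9 via ODN-2216 at 3 μM final.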

On to `Cc1cc(-c2[nH]c3cc(C4CCNCC4)ccc3c2C)cc(C)n1` [Example 48, 2-(2,6-dimethylpyridin-4-yl)-3-methyl-6-(piperidin-4-yl)-1H-indole], for which the EC50 is 0.136 µM.

Turning to `Cc1cc(-c2[nH]c3cc(-c4ccc(N5CCNCC5)nc4)ccc3c2C2CC2)cn(C)c1=O` [Example 165], the EC50 was 0.186 µM.

As for `Cc1cc(-c2[nH]c3cc(-c4ccc(N5CCN(CCO)CC5)nc4)ccc3c2C)cc(C)n1` [Example 37, 2-(4-(5-(2-(2,6-dimethylpyridin-4-yl)-3-methyl-1H-indol-6-yl)pyridin-2-yl)piperazin-1-yl)ethan-1-ol], the EC50 is 0.0375 µM.

Regarding `Cc1cc(-c2[nH]c3cc(C4CCNCC4)ccc3c2C(C)C)cn2ncnc12` [Example 55], the EC50 amounted to 3.98 µM.

Regarding `Cc1c(-c2cc(C)c3ncnn3c2)[nH]c2cc(-c3ccc(N4CCNCC4)nc3)ccc12` [Example 71], the EC50 is 0.63 µM.

With `CCc1c(-c2cc(OC)c3ncnn3c2)[nH]c2cc(-c3ccc(N4CCNCC4)nc3)ccc12` [Example 169], the EC50 amounted to 0.502 µM.

Turning to `Cc1cc(-c2[nH]c3cc(-c4ccc(N5CCNCC5)nc4)ccc3c2C)cc(C)n1` [Example 1, 2-(2,6-dimethylpyridin-4-yl)-3-methyl-6-(6-(piperazin-1-yl)pyridin-3-yl)-1H-indole], the EC50 stood at 0.0519 µM.

As for `Cc1cc(-c2[nH]c3cc(C4CCCNC4)ccc3c2C)cc(C)n1` (stereo not drawn) [Example 53], the EC50 stood at 0.181 µM.

Consider `CCc1c(-c2cc(C)c3ncnn3c2)[nH]c2cc(-c3ccc(N4CCNCC4)nc3)ccc12` [Example 167, 6-(3-ethyl-6-(6-(piperazin-1-yl)pyridin-3-yl)-1H-indol-2-yl)-8-methyl-[1,2,4]triazolo[1,5-a]pyridine], for which the EC50 worked out at 0.393 µM.

For the origin of these results see patent publication US20250002471A1 (Gilead Sciences, Inc., priority 2020, published 2025).
